Key:
SUD4 = experiment: Antiproliferative activity against human SU-DHL-4 cells assessed as cell growth inhibition measured after 72 hrs by MTT assay; assay type: functional, cell-based; details: SU-DHL-4, 72 h
[1] = biological target: T1, Phosphatidylinositol 4,5-bisphosphate 3-kinase catalytic subunit delta isoform (Homo sapiens, UniProt O00329); experiment: Inhibition of N-terminal His6-tagged recombinant full length human PI3Kdelta expressed in baculovirus infected Sf21 insect cells incubated for 30 mins by HTRF assay
T1 sequence (O00329 whole entry): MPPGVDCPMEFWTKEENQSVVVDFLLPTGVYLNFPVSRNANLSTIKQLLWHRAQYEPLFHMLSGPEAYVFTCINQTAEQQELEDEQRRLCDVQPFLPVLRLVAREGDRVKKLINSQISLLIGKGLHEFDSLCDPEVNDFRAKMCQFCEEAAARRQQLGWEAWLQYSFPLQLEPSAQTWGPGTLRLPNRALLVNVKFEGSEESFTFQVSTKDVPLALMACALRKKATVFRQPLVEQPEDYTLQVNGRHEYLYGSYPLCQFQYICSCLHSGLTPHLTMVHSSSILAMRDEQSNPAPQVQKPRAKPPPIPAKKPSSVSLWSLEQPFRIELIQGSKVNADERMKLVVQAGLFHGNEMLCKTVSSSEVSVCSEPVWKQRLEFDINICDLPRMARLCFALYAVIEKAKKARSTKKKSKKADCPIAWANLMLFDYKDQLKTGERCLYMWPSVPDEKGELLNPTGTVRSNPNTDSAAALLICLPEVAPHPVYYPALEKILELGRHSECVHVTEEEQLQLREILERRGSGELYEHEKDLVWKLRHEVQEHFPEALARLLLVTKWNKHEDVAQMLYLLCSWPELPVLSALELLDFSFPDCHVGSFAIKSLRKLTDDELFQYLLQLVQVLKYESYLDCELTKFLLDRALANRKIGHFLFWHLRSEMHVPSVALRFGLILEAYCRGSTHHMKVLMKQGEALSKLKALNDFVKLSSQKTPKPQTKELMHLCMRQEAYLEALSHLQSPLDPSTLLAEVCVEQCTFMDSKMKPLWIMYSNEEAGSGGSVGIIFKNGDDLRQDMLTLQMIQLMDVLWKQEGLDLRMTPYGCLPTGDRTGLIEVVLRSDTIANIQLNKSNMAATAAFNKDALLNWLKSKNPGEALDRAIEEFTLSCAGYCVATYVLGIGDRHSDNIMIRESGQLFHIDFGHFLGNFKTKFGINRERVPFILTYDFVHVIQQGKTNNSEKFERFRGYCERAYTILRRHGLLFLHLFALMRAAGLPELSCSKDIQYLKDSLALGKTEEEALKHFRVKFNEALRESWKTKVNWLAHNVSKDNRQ

[2] = biological target: T2, Phosphatidylinositol 4,5-bisphosphate 3-kinase catalytic subunit gamma isoform (Homo sapiens, UniProt P48736); experiment: Inhibition of N-terminal His6-tagged recombinant full length human PI3Kgamma expressed in baculovirus infected Sf21 insect cells incubated for 30 mins by HTRF assay
Target sequence in this assay (P48736 whole entry, canonical isoform): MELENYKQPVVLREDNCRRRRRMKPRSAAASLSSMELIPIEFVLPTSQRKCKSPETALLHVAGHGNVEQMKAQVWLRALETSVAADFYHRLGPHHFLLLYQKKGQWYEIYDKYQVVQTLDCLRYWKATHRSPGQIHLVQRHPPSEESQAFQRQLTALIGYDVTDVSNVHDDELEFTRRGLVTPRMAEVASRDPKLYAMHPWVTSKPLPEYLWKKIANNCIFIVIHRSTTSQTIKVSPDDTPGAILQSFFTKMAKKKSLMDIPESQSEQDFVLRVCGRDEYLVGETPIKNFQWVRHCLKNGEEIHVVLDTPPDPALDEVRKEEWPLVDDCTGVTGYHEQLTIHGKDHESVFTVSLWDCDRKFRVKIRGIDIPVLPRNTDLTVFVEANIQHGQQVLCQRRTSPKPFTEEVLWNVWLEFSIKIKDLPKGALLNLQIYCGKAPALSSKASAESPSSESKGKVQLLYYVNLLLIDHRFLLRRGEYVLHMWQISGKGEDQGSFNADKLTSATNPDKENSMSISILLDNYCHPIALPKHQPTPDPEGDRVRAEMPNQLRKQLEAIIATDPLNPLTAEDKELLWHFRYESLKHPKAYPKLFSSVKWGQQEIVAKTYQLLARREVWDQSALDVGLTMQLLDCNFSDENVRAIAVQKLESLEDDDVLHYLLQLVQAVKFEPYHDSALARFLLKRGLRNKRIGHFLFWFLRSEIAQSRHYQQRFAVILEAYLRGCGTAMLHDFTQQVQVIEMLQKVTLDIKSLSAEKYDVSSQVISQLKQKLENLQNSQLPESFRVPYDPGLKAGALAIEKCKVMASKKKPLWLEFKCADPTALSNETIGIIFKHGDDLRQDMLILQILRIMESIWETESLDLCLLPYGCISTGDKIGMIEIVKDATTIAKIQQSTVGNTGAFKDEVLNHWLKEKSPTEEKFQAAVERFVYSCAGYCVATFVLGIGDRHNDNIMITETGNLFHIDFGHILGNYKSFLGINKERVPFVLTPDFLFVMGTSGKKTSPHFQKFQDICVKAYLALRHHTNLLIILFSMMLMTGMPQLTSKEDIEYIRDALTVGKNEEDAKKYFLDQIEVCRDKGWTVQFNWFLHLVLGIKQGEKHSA

SU-DHL-6 [3] = experiment: Antiproliferative activity against human SU-DHL-6 cells assessed as cell growth inhibition measured after 72 hrs by MTT assay; assay type: functional, cell-based; details: SU-DHL-6, 72 h
DOHH-2 [4] = experiment: Antiproliferative activity against human DOHH-2 cells assessed as cell growth inhibition measured after 72 hrs by MTT assay; assay type: functional, cell-based; details: DOHH-2, 72 h
SU-DHL-6 [5] = experiment: Induction of cell cycle arrest in human SU-DHL-6 cells assessed as accumulation of cells at G0/G1 phase at 0.5 uM incubated for 24 hrs by PI staining based FACScan flow cytometry analysis (reference value: 55.61 %); assay type: functional
DOHH-2 [6] = experiment: Induction of apoptosis in human DOHH-2 cells assessed as necrotic cells at 1 uM incubated for 48 hrs by annexin V-FITC and PI staining based flow cytometry analysis (Rvb =0.29 %); assay type: functional
SU-DHL-6 [7] = experiment: Induction of apoptosis in human SU-DHL-6 cells assessed as early apoptotic cells at 1.5 uM incubated for 48 hrs by annexin V-FITC and PI staining based flow cytometry analysis (reference value: 8.81 %); assay type: functional
DOHH-2 [8] = experiment: Induction of apoptosis in human DOHH-2 cells assessed as viable cells at 1 uM incubated for 48 hrs by annexin V-FITC and PI staining based flow cytometry analysis (reference value: 95.4 %); assay type: functional; details: read-out: Activity
DOHH-2 [9] = experiment: Induction of apoptosis in human DOHH-2 cells assessed as late apoptotic cells at 1 uM incubated for 48 hrs by annexin V-FITC and PI staining based flow cytometry analysis (reference value: 2.20 %); assay type: functional
DOHH-2 [10] = experiment: Induction of cell cycle arrest in human DOHH-2 cells assessed as accumulation of cells at G2/M phase at 1 uM incubated for 24 hrs by PI staining based flow cytometry analysis (reference value: 21.42 %); assay type: functional
SU-DHL-6 [11] = experiment: Induction of apoptosis in human SU-DHL-6 cells assessed as late apoptotic cells at 1.5 uM incubated for 48 hrs by annexin V-FITC and PI staining based flow cytometry analysis (reference value: 3.88 %); assay type: functional
SU-DHL-6 [12] = experiment: Induction of cell cycle arrest in human SU-DHL-6 cells assessed as accumulation of cells at G2/M phase at 0.5 uM incubated for 24 hrs by PI staining based FACScan flow cytometry analysis (reference value: 20.21 %); assay type: functional
SU-DHL-6 [13] = experiment: Induction of apoptosis in human SU-DHL-6 cells assessed as necrotic cells at 1.5 uM incubated for 48 hrs by annexin V-FITC and PI staining based flow cytometry analysis (reference value: 0.32%); assay type: functional
SU-DHL-6 [14] = experiment: Induction of apoptosis in human SU-DHL-6 cells assessed as viable cells at 1.5 uM incubated for 48 hrs by annexin V-FITC and PI staining based flow cytometry analysis (reference value: 87.0 %); assay type: functional; details: read-out: Activity
DOHH-2 [15] = experiment: Induction of cell cycle arrest in human DOHH-2 cells assessed as accumulation of cells at G0/G1 phase at 1 uM incubated for 24 hrs by PI staining based flow cytometry analysis (reference value: 23.47 %); assay type: functional
DOHH-2 [16] = experiment: Induction of apoptosis in human DOHH-2 cells assessed as early apoptotic cells at 1 uM incubated for 48 hrs by annexin V-FITC and PI staining based flow cytometry analysis (reference value: 2.09 %); assay type: functional
SU-DHL-6 [17] = experiment: Induction of cell cycle arrest in human SU-DHL-6 cells assessed as accumulation of cells at S phase at 0.5 uM incubated for 24 hrs by PI staining based FACScan flow cytometry analysis (reference value: 24.18 %); assay type: functional
DOHH-2 [18] = experiment: Induction of cell cycle arrest in human DOHH-2 cells assessed as accumulation of cells at S phase at 1 uM incubated for 24 hrs by PI staining based flow cytometry analysis (reference value: 55.11 %); assay type: functional
[19] = biological target: T3, Phosphatidylinositol 4,5-bisphosphate 3-kinase catalytic subunit alpha isoform (Homo sapiens, UniProt P42336); experiment: Inhibition of N-terminal His6-tagged recombinant full length human PI3Kalpha expressed in baculovirus infected Sf21 insect cells incubated for 30 mins by HTRF assay
T3 sequence (P42336 whole entry, canonical isoform): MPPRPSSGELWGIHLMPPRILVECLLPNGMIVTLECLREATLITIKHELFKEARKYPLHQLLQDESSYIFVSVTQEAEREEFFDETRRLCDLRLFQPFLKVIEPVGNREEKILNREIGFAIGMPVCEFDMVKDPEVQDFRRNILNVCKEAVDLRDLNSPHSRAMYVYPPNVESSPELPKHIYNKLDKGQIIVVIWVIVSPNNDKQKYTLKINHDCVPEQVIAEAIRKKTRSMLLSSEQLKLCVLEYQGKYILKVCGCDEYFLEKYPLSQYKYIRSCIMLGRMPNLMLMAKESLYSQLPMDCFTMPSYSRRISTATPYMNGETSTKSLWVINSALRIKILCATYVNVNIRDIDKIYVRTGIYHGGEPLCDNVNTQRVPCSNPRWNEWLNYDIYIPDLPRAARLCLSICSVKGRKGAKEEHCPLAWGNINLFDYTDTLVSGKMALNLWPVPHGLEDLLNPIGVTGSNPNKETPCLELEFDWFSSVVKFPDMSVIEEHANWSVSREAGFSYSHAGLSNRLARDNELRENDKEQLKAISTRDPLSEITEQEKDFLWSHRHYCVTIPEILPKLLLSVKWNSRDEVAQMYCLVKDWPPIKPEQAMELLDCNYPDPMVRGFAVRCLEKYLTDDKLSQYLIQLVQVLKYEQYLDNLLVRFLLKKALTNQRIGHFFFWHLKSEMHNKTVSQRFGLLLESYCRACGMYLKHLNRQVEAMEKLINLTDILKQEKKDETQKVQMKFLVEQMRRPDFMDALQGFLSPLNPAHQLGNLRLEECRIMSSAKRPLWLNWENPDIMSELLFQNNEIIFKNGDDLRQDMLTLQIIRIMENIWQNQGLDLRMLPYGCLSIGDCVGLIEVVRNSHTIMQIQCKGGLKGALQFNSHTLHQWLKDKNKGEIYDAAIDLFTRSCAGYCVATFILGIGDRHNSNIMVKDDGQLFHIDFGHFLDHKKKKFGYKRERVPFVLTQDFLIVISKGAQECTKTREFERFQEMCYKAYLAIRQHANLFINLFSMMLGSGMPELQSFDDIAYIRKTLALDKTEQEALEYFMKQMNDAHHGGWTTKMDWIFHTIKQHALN

[20] = biological target: T4, Phosphatidylinositol 4,5-bisphosphate 3-kinase catalytic subunit beta isoform (Homo sapiens, UniProt P42338); experiment: Inhibition of N-terminal His6-tagged recombinant full length human PI3Kbeta expressed in baculovirus infected Sf21 insect cells incubated for 30 mins by HTRF assay
Target sequence in this assay (P42338 whole entry, canonical isoform): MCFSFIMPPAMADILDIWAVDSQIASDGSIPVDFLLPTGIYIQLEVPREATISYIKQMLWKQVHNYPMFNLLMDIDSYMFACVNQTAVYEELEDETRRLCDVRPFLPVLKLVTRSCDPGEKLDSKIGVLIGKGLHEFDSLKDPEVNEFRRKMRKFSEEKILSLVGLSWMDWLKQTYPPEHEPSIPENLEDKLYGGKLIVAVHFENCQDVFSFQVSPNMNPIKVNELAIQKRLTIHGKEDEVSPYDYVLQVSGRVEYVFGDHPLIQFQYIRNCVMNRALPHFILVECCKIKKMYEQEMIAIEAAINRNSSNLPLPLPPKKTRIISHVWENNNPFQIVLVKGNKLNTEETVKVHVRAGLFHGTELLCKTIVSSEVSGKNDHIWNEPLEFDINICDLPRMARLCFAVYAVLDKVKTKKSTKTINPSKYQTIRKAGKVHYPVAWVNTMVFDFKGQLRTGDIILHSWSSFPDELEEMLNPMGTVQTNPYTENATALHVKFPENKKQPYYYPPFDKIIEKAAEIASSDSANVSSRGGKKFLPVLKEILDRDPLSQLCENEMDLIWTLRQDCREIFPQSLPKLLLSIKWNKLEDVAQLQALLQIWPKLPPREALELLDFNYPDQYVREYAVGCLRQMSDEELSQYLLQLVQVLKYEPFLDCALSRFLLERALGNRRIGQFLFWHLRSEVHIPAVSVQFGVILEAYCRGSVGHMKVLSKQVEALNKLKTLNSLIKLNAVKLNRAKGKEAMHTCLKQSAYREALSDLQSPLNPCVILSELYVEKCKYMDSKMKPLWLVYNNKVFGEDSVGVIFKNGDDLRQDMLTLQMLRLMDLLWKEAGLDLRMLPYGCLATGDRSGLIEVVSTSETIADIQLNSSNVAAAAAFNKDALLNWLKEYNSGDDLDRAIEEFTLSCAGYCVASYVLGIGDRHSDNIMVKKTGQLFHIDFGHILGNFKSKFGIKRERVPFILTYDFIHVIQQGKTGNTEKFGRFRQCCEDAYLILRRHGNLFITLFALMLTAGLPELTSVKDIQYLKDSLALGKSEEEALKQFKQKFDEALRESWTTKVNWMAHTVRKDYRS

[21] = Metabolic stability in human liver microsomes assessed as clearance at 1 uM measured upto 60 mins in presence of NADPH by measuring protein; assay type: ADME, Microsome; details: 1 h
[22] = biological target: T5, Phosphatidylinositol 4,5-bisphosphate 3-kinase catalytic subunit delta isoform (Homo sapiens) (UniProt O00329); experiment: Inhibition of N-terminal His6-tagged recombinant full length human PI3Kdelta expressed in baculovirus infected Sf21 insect cells at 1 uM by HTRF assay relative to control
T5 sequence (whole entry): T1 sequence (O00329 whole entry)

[23] = biological target: T3, Phosphatidylinositol 4,5-bisphosphate 3-kinase catalytic subunit alpha isoform; experiment: Inhibition of N-terminal His6-tagged recombinant full length human PI3Kalpha expressed in baculovirus infected Sf21 insect cells at 1 uM by HTRF assay relative to control
[24] = biological target: T2, Phosphatidylinositol 4,5-bisphosphate 3-kinase catalytic subunit gamma isoform; experiment: Inhibition of N-terminal His6-tagged recombinant full length human PI3Kgamma expressed in baculovirus infected Sf21 insect cells at 0.1 uM by HTRF assay relative to control
Target sequence in this assay (P48736 whole entry, looked up, canonical isoform): as the sequence (P48736 whole entry, canonical isoform) above

[25] = biological target: T5, Phosphatidylinositol 4,5-bisphosphate 3-kinase catalytic subunit delta isoform (Homo sapiens); experiment: Inhibition of N-terminal His6-tagged recombinant full length human PI3Kdelta expressed in baculovirus infected Sf21 insect cells at 0.1 uM by HTRF assay relative to control
[26] = biological target: T4, Phosphatidylinositol 4,5-bisphosphate 3-kinase catalytic subunit beta isoform; experiment: Inhibition of N-terminal His6-tagged recombinant full length human PI3Kbeta expressed in baculovirus infected Sf21 insect cells at 1 uM by HTRF assay relative to control
Target sequence in this assay (P42338 whole entry, looked up, canonical isoform): as the sequence (P42338 whole entry, canonical isoform) above

[27] = biological target: T2, Phosphatidylinositol 4,5-bisphosphate 3-kinase catalytic subunit gamma isoform; experiment: Inhibition of N-terminal His6-tagged recombinant full length human PI3Kgamma expressed in baculovirus infected Sf21 insect cells at 1 uM by HTRF assay relative to control
Target sequence in this assay (P48736 whole entry, looked up, canonical isoform): as the sequence (P48736 whole entry, canonical isoform) above

[28] = Metabolic stability in human liver microsomes assessed as half life at 1 uM measured upto 60 mins in presence of NADPH; assay type: ADME, Microsome
[29] = Metabolic stability in human liver microsomes assessed as compound remaining at 1 uM measured upto 60 mins in presence of NADPH; assay type: ADME, Microsome; details: read-out: Stability

Structure (SMILES)	IC50 [1]	IC50 [2]	IC50 (SU-DHL-6 [3])	IC50 [19]	IC50 [20]	IC50 (SUD4)	IC50 (DOHH-2 [4])	further results
N#Cc1c(N)nc(N)nc1N1[C@H](c2nc3cccc(Cl)c3c(=O)n2N2CCOCC2)C[C@@H]2CCCC[C@@H]21	41 µM	312 µM	1.34 µM	–	–	1.04 µM	3.86 µM	–
C=CC(=O)N1CCC[C@@H](n2nc(-c3ccc(Oc4ccccc4)cc3)c3c(N)ncnc32)C1 [IBRUTINIB]	–	–	–	–	–	–	–	Activity (SU-DHL-6 [5]): 58.11%; Activity (DOHH-2 [6]): 0.7%; Activity (SU-DHL-6 [7]): 9.9%; viability at 1 µM (DOHH-2 [8]): 79.9%; Activity (DOHH-2 [9]): 10.7%; Activity (DOHH-2 [10]): 13.92%; Activity (SU-DHL-6 [11]): 4.62%; Activity (SU-DHL-6 [12]): 12.04%; Activity (SU-DHL-6 [13]): 0.15%; viability at 1.5 µM (SU-DHL-6 [14]): 86.1%; Activity (DOHH-2 [15]): 46.69%; Activity (DOHH-2 [16]): 8.69%; Activity (SU-DHL-6 [17]): 29.85%; Activity (DOHH-2 [18]): 40.49%
N#Cc1c(N)nc(N)nc1N1[C@H](c2nc3cccc(Cl)c3c(=O)n2-c2cccc(F)c2)C[C@@H]2CCCC[C@@H]21	28 µM	280 µM	1.61 µM	–	–	1.3 µM	2.8 µM	–
N#Cc1c(N)nc(N)nc1N1[C@H](c2nc3cccc(F)c3c(=O)n2-c2cccnc2)C[C@@H]2CCCC[C@@H]21	42 µM	364 µM	1.1 µM	3120 µM	1550 µM	1.12 µM	2.57 µM	–

Continued by falling IC50 (SU-DHL-6 [3]), values first:

IC50 [1]	IC50 [2]	IC50 (SU-DHL-6 [3])	IC50 [19]	IC50 [20]	Structure (SMILES)	IC50 (SUD4)	IC50 (DOHH-2 [4])	further results
2 µM	17 µM	0.19 µM	258 µM	412 µM	C[C@H]1CC[C@@H](c2nc3cccc(Cl)c3c(=O)n2-c2cccc(F)c2)N1c1nc(N)nc(N)c1C#N	0.09 µM	0.5 µM	–
3 µM	30 µM	0.18 µM	374 µM	445 µM	C[C@H]1CC[C@@H](c2nc3c(F)cc(F)cc3c(=O)n2-c2cccnc2)N1c1nc(N)nc(N)c1C#N	0.16 µM	0.47 µM	–
–	–	0.11 µM	–	–	C[C@H]1CC[C@@H](c2nc3cccc(Cl)c3c(=O)n2-c2ccccc2)N1c1nc(N)nc(N)c1C#N	0.12 µM	0.82 µM	CLH [21]: 13 mL/min/g; inhibition [22]: -1%; inhibition [23]: 13%; inhibition [24]: 24%; inhibition [25]: -7%; inhibition [26]: 45%; inhibition [27]: -3%; half-life at 1 µM [28]: 1.78 h; remaining at 1 h, 1 µM [29]: 67.9%
0.6 µM	9 µM	0.11 µM	22 µM	429 µM	COc1cncc(-c2cccc3nc([C@@H]4CC[C@H](C)N4c4nc(N)nc(N)c4C#N)n(-c4cccc(F)c4)c(=O)c23)c1	0.43 µM	0.52 µM	–

From ChEMBL document CHEMBL5120922, “Discovery, Optimization, and Evaluation of Potent and Selective PI3Kδ-γ Dual Inhibitors for the Treatment of B-cell Malignancies” (J Med Chem, 2022)
